Data from patent US10407425B2, “Indazole inhibitors of the Wnt signal pathway and therapeutic uses thereof” (Samumed, LLC, priority 2012, dated 2019).

Tested on: Wnt activity
Assay: Wnt activity reporter assay (SP5 promoter firefly luciferase in SW480 cells)
Format: cell-based
Details: Homo sapiens; SW480 cells bearing SP5 promoter luciferase reporter; 24 h after compound addition; read-out: Wnt inhibition
Text: The above synthesized compounds were screened using the assay procedure for Wnt activity described below.
Reporter cell lines can be generated by stably transducing cells of cancer cell lines (e.g., colon cancer) with a lentiviral construct that include a wnt-responsive promoter driving expression of the firefly luciferase gene.
Lentiviral constructs can be made in which the SP5 promoter, a promoter having eight TCF/LEF binding sites derived from the SP5 promoter, is linked upstream of the firefly luciferase gene. The lentiviral constructs can also include a hygromycin resistance gene as a selectable marker. The SP5 promoter construct can be used to transduce SW480 cells, a colon cancer cell line having a mutated APC gene that generates a truncated APC protein, leading to de-regulated accumulation of β-catenin.
Cultured SW480 cells bearing a reporter construct can be distributed at approximately 10,000 cells per well into 384 well multiwell plates. Compounds from a small molecule compound library can then be added to the wells in half-log dilutions using a three micromolar top concentration. A series of control wells for each cell type receive only buffer and compound solvent. Twenty-four hours after the addition of compound, reporter activity for luciferases can be assayed, for example, by addition of the BrightGlo luminescence reagent (Promega) and the Victor3 plate reader (Perkin Elmer). Readings can be normalized to DMSO only treated cells, and normalized activities can then be used in the IC50 calculations.

| IC50 [µM] | Compound |
| --- | --- |
| 0.373 | Cc1ccncc1-c1ccc2[nH]nc(-c3nc4c(-c5ccncc5)cncc4[nH]3)c2c1 [Compound 154, 2-(5-(4-Methylpyridin-3-yl)-1H-indazol-3-yl)-7-(pyridin-4-yl)-3H-imidazo[4,5-c]pyridine] |
| 0.191 | Cc1ccncc1-c1ccc2[nH]nc(-c3nc4c(-c5ccsc5)cncc4[nH]3)c2c1 [Compound 293, 2-(5-(4-Methylpyridin-3-yl)-1H-indazol-3-yl)-7-(thiophen-3-yl)-3H-imidazo[4,5-c]pyridine] |
| 0.0014 to 0.0018 | CCC(=O)Nc1cncc(-c2ccc3[nH]nc(-c4nc5c(-c6cncc(F)c6)cncc5[nH]4)c3c2)c1 [Compound 20, N-(5-(3-(7-(5-fluoropyridin-3-yl)-3H-imidazo[4,5-c]pyridin-2-yl)-1H-indazol-5-yl)pyridin-3-yl)propionamide] |
| 0.002 | c1ccc(-c2cncc3[nH]c(-c4n[nH]c5ccc(-c6cccnc6)cc45)nc23)nc1 [Compound 177, 7-(Pyridin-2-yl)-2-(5-(pyridin-3-yl)-1H-indazol-3-yl)-3H-imidazo[4,5-c]pyridine] |
| 0.041 | CC(C)(C)C(=O)Nc1cncc(-c2ccc3[nH]nc(-c4nc5c(N6CCCCC6)cncc5[nH]4)c3c2)c1 [Compound 205, N-(5-(3-(7-(Piperidin-1-yl)-3H-imidazo[4,5-c]pyridin-2-yl)-1H-indazol-5-yl)pyridin-3-yl)pivalamide] |
| 0.311 | CC(C)CC(=O)Nc1cncc(-c2ccc3[nH]nc(-c4nc5c(N6CCCCC6)cncc5[nH]4)c3c2)c1 [Compound 199, 3-Methyl-N-(5-(3-(7-(piperidin-1-yl)-3H-imidazo[4,5-c]pyridin-2-yl)-1H-indazol-5-yl)pyridin-3-yl)butanamide] |
| 0.002 | CN1CCN(c2cncc3[nH]c(-c4n[nH]c5ccc(-c6cncc(N)c6)cc45)nc23)CC1 [Compound 247, 5-(3-(7-(4-Methylpiperazin-1-yl)-3H-imidazo[4,5-c]pyridin-2-yl)-1H-indazol-5-yl)pyridin-3-amine] |
| 0.022 | CC(C)CC(=O)Nc1cncc(-c2ccc3[nH]nc(-c4nc5c(-c6cc(F)cc(NCCN(C)C)c6)cncc5[nH]4)c3c2)c1 [Compound 349, N-(5-(3-(7-(3-(2-(Dimethylamino)ethylamino)-5-fluorophenyl)-3H-imidazo[4,5-c]pyridin-2-yl)-1H-indazol-5-yl)pyridin-3-yl)-3-methylbutanamide] |
| 0.069 | CN(C)Cc1cncc(-c2ccc3[nH]nc(-c4nc5c(-c6ccsc6)cncc5[nH]4)c3c2)c1 [Compound 301, N,N-Dimethyl-1-(5-(3-(7-(thiophen-3-yl)-3H-imidazo[4,5-c]pyridin-2-yl)-1H-indazol-5-yl)pyridin-3-yl)methanamine] |
| 0.002 | Nc1cncc(-c2ccc3[nH]nc(-c4nc5c(-c6ccsc6)cncc5[nH]4)c3c2)c1 [Compound 291, 5-(3-(7-(Thiophen-3-yl)-3H-imidazo[4,5-c]pyridin-2-yl)-1H-indazol-5-yl)pyridin-3-amine] |
| 0.006 | O=C(Nc1cncc(-c2ccc3[nH]nc(-c4nc5c(-c6ccc(F)cc6)cncc5[nH]4)c3c2)c1)C1CCC1 [Compound 111, N-(5-(3-(7-(4-Fluorophenyl)-3H-imidazo[4,5-c]pyridin-2-yl)-1H-indazol-5-yl)pyridin-3-yl)cyclobutanecarboxamide] |
| 0.021 | CC(C)(C)CC(=O)Nc1cncc(-c2ccc3[nH]nc(-c4nc5ccncc5[nH]4)c3c2)c1 [Compound 280, N-(5-(3-(3H-Imidazo[4,5-c]pyridin-2-yl)-1H-indazol-5-yl)pyridin-3-yl)-3,3-dimethylbutanamide] |
| > 10 | CN(C)Cc1cncc(-c2ccc3[nH]nc(-c4nc5c(-c6cccc(F)c6)cncc5[nH]4)c3c2)c1 [Compound 89, 1-(5-(3-(7-(3-Fluorophenyl)-3H-imidazo[4,5-c]pyridin-2-yl)-1H-indazol-5-yl)pyridin-3-yl)-N,N-dimethylmethanamine] |
| 0.042 | CCCC(=O)Nc1cncc(-c2ccc3[nH]nc(-c4nc5c(N6CCCCC6)cncc5[nH]4)c3c2)c1 [Compound 214, N-(5-(3-(7-(Piperidin-1-yl)-3H-imidazo[4,5-c]pyridin-2-yl)-1H-indazol-5-yl)pyridin-3-yl)butyramide] |
| 0.4 to 0.63 | CC(C)C(=O)Nc1cncc(-c2ccc3[nH]nc(-c4nc5ccncc5[nH]4)c3c2)c1 [Compound 9, N-(5-(3-(3H-imidazo[4,5-c]pyridin-2-yl)-1H-indazol-5-yl)pyridin-3-yl)isobutyramide] |
